The target in test [1] is purified Human plasma kallikrein (Homo sapiens (Human), UniProt P03952). Description: Kallikrein Assay. It is filed as biochemical. The note with it: table titled Kalikrein inhibition (column head prints hFXIa), substrate Acetyl-K-P-R-AFC, pH 7.4. On the procedure: (§1) The effectiveness of a compound of the present invention as an inhibitor of Kallikrein can be determined using a relevant purified serine protease, and an appropriate synthetic substrate. The rate of hydrolysis of the chromogenic or fluorogenic substrate by the relevant serine protease was measured both in the absence and presence of compounds of the present invention. Assays were conducted at room temperature or at 37° C. […] A decrease in the rate of fluorescence change in the presence of inhibitor is indicative of enzyme inhibition. Such methods are known to one skilled in the art. The results of this assay are expressed as the inhibitory constant, Ki.
purified Human plasma kallikrein, sequence (P03952 391-638): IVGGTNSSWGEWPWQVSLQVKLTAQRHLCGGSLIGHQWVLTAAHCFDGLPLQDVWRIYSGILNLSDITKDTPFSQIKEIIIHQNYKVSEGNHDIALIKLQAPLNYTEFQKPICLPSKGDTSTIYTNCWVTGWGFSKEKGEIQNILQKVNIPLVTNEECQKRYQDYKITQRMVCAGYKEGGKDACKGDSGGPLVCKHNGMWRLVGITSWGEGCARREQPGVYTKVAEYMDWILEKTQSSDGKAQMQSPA
purified Human plasma kallikrein, sequence (P03952 20-390 partner): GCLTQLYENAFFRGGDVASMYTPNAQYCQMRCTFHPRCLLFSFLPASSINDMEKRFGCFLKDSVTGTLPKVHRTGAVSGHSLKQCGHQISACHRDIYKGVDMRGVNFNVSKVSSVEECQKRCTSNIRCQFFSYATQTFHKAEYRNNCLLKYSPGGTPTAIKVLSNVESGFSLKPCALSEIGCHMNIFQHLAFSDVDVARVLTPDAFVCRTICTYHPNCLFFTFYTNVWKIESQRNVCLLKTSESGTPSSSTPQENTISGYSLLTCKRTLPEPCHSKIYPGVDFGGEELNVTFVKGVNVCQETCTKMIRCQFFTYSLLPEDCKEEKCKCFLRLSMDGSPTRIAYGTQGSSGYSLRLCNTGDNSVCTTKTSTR
Kallikrein determinations were made in 50 mM HEPES buffer at pH 7.4 containing 150 mM NaCl, 5 mM CaCl2, and 0.1% PEG 8000 (polyethylene glycol; Fisher Scientific). Determinations were made using purified Human plasma kallikrein at a final concentration of 0.5 nM (Enzyme Research Laboratories) and the synthetic substrate, Acetyl-K-P-R-AFC (Sigma # C6608) at a concentration of […].
Activity assays were performed by diluting a stock solution of substrate at least tenfold to a final concentration ≤0.2 Km into a solution containing enzyme or enzyme equilibrated with inhibitor. Times required to achieve equilibration between enzyme and inhibitor were determined in control experiments. The reactions were performed under linear progress curve conditions and fluorescence increase measured at 405 Ex/510 Em nm. Values were converted to percent inhibition of the control reaction (after subtracting 100% Inhibition value). IC50 was determined by inflection point from a four parameter logistic curve fit. Ki was calculated using the Cheng Prusoff equation, Ki=IC50/(1+([S]/Km)).

For test [2], the target named is purified human Factor XIa (Homo sapiens (Human), UniProt P03951). Nature of the test: Factor XIa Assay. It is filed as biochemical. The note with it: Factor XIa inhibition; substrate Z-Gly-Pro-Arg-AFC, pH 7.4; read-out: hFXIa IC50. On the procedure:
as §1, with “Coagulation Factor XIa” for “Kallikrein”, “The results of this assay are expressed as the inhibitory constant, Ki.” left out
Factor XIa determinations were made in 50 mM HEPES buffer at pH 7.4 containing 150 mM NaCl, 5 mM CaCl2, and 0.1% PEG 8000 (polyethylene glycol; JT Baker or Fisher Scientific). Determinations were made using purified human Factor XIa at a final concentration of 40 pM (Sekisui Diagnostics) and the synthetic substrate, Z-Gly-Pro-Arg-AFC, TFA salt (Sigma #C0980) at a concentration of 100 μM.
Activity assays were performed by diluting a stock solution of substrate at least tenfold to a final concentration ≤0.1 Km into a solution containing enzyme or enzyme equilibrated with inhibitor. Times required to achieve equilibration between enzyme and inhibitor were determined in control experiments. Initial velocities of product formation in the absence (Vo) or presence of inhibitor (Vi) were measured. Assuming competitive inhibition, and that unity is negligible compared Km/[S], [I]/e, and [I]/e (where [S], [I], and e respectively represent the total concentrations, of substrate, inhibitor and enzyme), the equilibrium constant (Ki) for dissociation of the inhibitor from the enzyme can be obtained from the dependence of Vo/Vi on [I] shown in the following equation. Vo/Vi=1+[I]/Ki

purified human Factor XIa, sequence (P03951 388-625): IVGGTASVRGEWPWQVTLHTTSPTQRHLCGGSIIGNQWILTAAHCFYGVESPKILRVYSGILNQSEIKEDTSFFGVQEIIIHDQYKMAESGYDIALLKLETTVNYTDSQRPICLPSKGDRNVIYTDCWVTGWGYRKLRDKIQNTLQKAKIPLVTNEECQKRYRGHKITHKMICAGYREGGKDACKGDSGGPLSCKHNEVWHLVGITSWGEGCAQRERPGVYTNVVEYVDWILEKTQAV
purified human Factor XIa, sequence (P03951 19-387 partner): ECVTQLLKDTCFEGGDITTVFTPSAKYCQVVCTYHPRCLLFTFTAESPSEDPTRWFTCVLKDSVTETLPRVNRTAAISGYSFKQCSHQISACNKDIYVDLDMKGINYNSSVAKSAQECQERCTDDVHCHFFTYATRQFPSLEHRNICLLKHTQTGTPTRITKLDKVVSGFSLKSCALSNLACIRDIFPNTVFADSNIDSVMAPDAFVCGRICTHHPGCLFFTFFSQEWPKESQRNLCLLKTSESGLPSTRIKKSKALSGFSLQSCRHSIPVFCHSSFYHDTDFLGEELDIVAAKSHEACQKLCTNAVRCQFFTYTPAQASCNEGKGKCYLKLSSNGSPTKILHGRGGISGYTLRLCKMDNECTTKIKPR

Consider `O=C(O)c1ccc(NC(=O)C2(O)CC(O)c3cc(-c4cc(Cl)ccc4-n4cnnn4)c[n+]([O-])c32)cc1` (stereo not shown) [Example 8, 4-[({3-[5-Chloro-2-(1H-tetrazol-1-yl)phenyl]-5,7-dihydroxy-1-oxido-6,7-dihydro-5H-cyclopenta[b]pyridin-7-yl}carbonyl)amino]benzoic acid], for which the results for the half-maximal inhibitory concentration (IC50) in test [1] and in test [2] were 816 nM and 4.2 nM, respectively.
`O=C(O)c1ccc(NC(=O)C2(O)CCc3cc(-c4cc(Cl)ccc4-n4cnnn4)c[n+]([O-])c32)cc1` (stereo not shown) [Example 19, 4-[({3-[5-Chloro-2-(1H-tetrazol-1-yl)phenyl]-7-hydroxy-1-oxido-6,7-dihydro-5H-cyclopenta[b]pyridin-7-yl}carbonyl)amino]benzoic acid]: the figures for the IC50 in test [1] and in test [2] were 1370 nM and 6 nM, respectively.

(Values after US10123995B2, “Factor XIa inhibitors” (MERCK SHARP & DOHME CORP., priority 2015, dated 2018).)
